The values that follow come from ChEMBL document CHEMBL3758167, “4H-Thieno[3,2-c]chromene based inhibitors of Notum Pectinacetylesterase” (Bioorg Med Chem Lett, 2016).

SMILES strings stand for the structures.

The nature of data set [1]: in vivo. Particulars: mouse, iv, 1 mg/kg.
Data set [2] is described as follows: in vivo. The conditions noted are these: mouse, po, 10 mg/kg.
Data set [3] in a line: in vivo. The conditions noted are these: mouse, po, 10 mg/kg. This is another data set of the same source.
Data set [4] is described as follows: in vivo. The conditions noted are these: mouse, iv, 1 mg/kg. This is another data set of the same source.
A short description of data set [5]: in vivo. Particulars: mouse, po, 10 mg/kg. The source holds these as a separate data set.

In general, clearance refers to the volume of plasma or blood freed of the substance per unit of time. By AUC is commonly meant the area under the concentration-time curve, a measure of exposure. A high value points to high exposure. The term bioavailability denotes the share of a dose that reaches the circulation, judged against a reference dose that is usually intravenous. Low readings indicate little systemic uptake, high ones much systemic uptake. For orientation: Vd means a proportionality between amount in the body and measured concentration, not a real space. The low end stands for confinement near the circulation, the high end for extensive tissue distribution. Broadly, the Cmax is the peak of the concentration-time curve. Consider `O=C(O)c1cc2c(s1)-c1ccccc1CC2`, for which the clearance in “in vivo [1]” came to 0.144 L/h/kg. This compound also had an AUC in the data set “in vivo [2]” of 158 µM·h. In the data set “in vivo [3]”, this compound yielded a bioavailability of 52%. The compound further gave a Vd in “in vivo [4]” of 0.57 L/kg. In “in vivo [5]”, the Cmax was 64 µM.
